# From publication PMC4287973, “Tumor cell-specific inhibition of MYC function using small molecule inhibitors of the HUWE1 ubiquitin ligase” (EMBO Molecular Medicine, 2014)
# Where a SMILES comes first, the peptide text is derived from it. The star is where a group is joined. Cbz = O=C(OCc1ccccc1)*
# Tested on: MIZ1
# Assay: HUWE1-mediated decrease in MIZ1 levels in transfected HeLa cells
# Type: cell-based
# Conditions: MG132 10 µM for 6 hrs
# From the text: Neither depletion nor chemical inhibition of HUWE1 affected the expression of any member of the MXD family of repressor proteins that antagonize transactivation by MYC or nuclear localization of MYC (Supplementary Figs S9A and S10). […] In contrast, ectopic expression of HUWE1 had only moderate effects on steady-state levels of MYC, consistent with the results obtained in response to depletion of HUWE1 (Fig6A). As a result, ectopic expression of HUWE1 increased the relative amount of MYC that is not bound to MIZ1 (Fig6B). […] Consistently, depletion or chemical inhibition of HUWE1 increased steady-state levels of MIZ1 in colon carcinoma cells (Fig6D and E). Similarly, depletion or inhibition of HUWE1 increased levels of MIZ1 in mouse keratinocytes (Supplementary Fig S11B and C), in which HUWE1 is known to degrade MIZ1 (Inoue et al, [2013]).
# Peter et al. HUWE1 inhibition
# B. Immunofluorescence staining of MYC upon HUWE1 inhibition. Ls174T cells were treated […]
# Supplementary Figure S11: Characterization of HUWE1 effects on MIZ1 stability.
# A, Effect of proteasome inhibition on HUWE1-induced downregulation of MIZ1. HeLa cells were transfected with plasmids encoding MIZ1 and HA-HUWE1. Cells were treated with BI8622 (20 µM) for 24 hrs, DMSO served as solvent control. MG132 was used at 10 µM for 6 hrs. Lysates were analyzed for expression of HUWE1 and MIZ1, Vinculin was used as […]
smiles,measurement,value
CC(C)C[C@@H](C=O)NC(=O)[C@H](CC(C)C)NC(=O)[C@H](CC(C)C)NC(=O)OCc1ccccc1 [MG132] (Cbz-Leu-Leu-Leu-aldehyde),HUWE1-mediated decrease in MIZ1 levels,blocked
